Source: patent USRE47193E1, “Selectively substituted quinoline compounds” (EISAI R&D MANAGEMENT CO., LTD., priority 2013, dated 2019)

System: IFN-regulated genes
Assay: Interferon gene expression in whole blood (qPCR TLDA panel, IFN score), Pristane model
Type: in vivo, mouse
Details: for disease up-regulated IFN-regulated genes reduced by treatment vs. vehicle: 13 weeks of treatment, Student's t-test
Method: FIG. 3A through FIG. 3E show results of testing compound ER-899742 in the Pristane: DBA/1 strain lupus disease model. Figure Legend: Female DBA/1 mice at 9 weeks of age were given an intraperitoneal injection of 0.5 ml pristane or PBS. At 9 weeks post-pristane animals were bled for auto-antibody titers. Once-a-day oral dosing with Vehicle (Veh; 0.5% methyl-cellulose) or 33 mg/kg, 100 mg/kg, or 300 mg/kg of ER-899742 was begun 10 weeks after pristane injection and continued for 13 weeks of treatment. Mice were euthanized after 13 weeks of compound treatment, and anti-dsDNA (FIG. 3A), anti-Sm/nRNP (FIG. 3B), anti-histone (FIG. 3C) and anti-RiboP (FIG. 3D) titers were measured in blood plasma samples by ELISA (statistical significance of treatment versus vehicle determined by ANOVA with Dunnett's post-test). (FIG. 3E) The expression of IFN-regulated genes in whole blood was measured by a qPCR panel after 13 weeks of treatment with 300 mg/kg of ER-899742, and an IFN gene signature score was calculated (see Pharmacology Materials and Methods section for details regarding IFN score calculation).
FIG. 7A through FIG. 7G show the effect of dosing with ER-899742 in Pristane-induced disease in DBA/1J mice. Figure Legend: Female DBA/1 mice at 9 weeks of age were given an intraperitoneal injection of 0.5 ml pristane or PBS. At 10 weeks post-pristane animals were bled for autoantibody titers. Once-a-day oral dosing with Vehicle (Veh; 0.5% methyl-cellulose) or 33 mg/kg, or 300 mg/kg of ER-899742 was begun 11 weeks after pristane injection and continued for 14 weeks of treatment. Mice were euthanized after 14 weeks of compound treatment, and anti-dsDNA (FIG. 7A), anti-RiboP (FIG. 7B), anti-Sm/nRNP (FIG. 7C), and anti-histone (FIG. 7D) titers were measured in blood plasma samples by ELISA (statistical significance of treatment versus vehicle determined by ANOVA with Dunnett's post-test). The same plasma was used to measure total IgG titers by ELISA at the end of dosing (FIG. 7E). […] Pristane-treated mice in this experiment developed arthritis, with swollen joints in the rear paws. Arthritis scores were assigned according to severity, each paw was scored on a scale of 0-4 based on signs of swelling and inflammation. Scores were summed for the two hind paws assessed on each animal, and graphed in FIG. 7F with statistical assessment as for ELISA titers above.
Assessment of interferon gene expression in whole blood. The expression of IFN-regulated genes in whole blood was measured by qPCR. Briefly, mice were euthanized, blood was collected via the vena cava, and 100 ul was preserved in tubes containing RNAlater (Ambion, Austin Tex.). Total RNA was isolated using the Mouse RiboPure Blood RNA Isolation Kit (Ambion). RNA concentrations were determined using a NanoDrop ND-1000 spectrophotometer (Thermo Scientific, Waltham Mass.). First strand cDNA was synthesized from 100 ng total RNA using SuperScript® VILO™ Master Mix (Life Technologies, Grand Island, N.Y.). After reverse transcription, cDNA was diluted with nuclease-free water and mixed with TaqMan® Fast Advanced Master Mix (Applied Biosystems). The mixture was then applied to a custom TaqMan® Low Density Array (TLDA) manufactured by Applied Biosystems, and qPCR was performed on the ABI 7900HT Fast Real-time PCR System (Applied Biosystems). Raw data was collected using RQ Manager 1.2.1 (Applied Biosystems) and analyzed using GeneData Analyst 2.2 software (GeneData).
The TLDA panel contained as many as 45 target genes chosen from Table 9 below, and 3 housekeeping genes for normalization. The housekeeping gene Hprt1 was chosen for normalization based on coefficient-of-variation. Relative quantities were determined for the target genes and used to calculate a fold change for each diseased mouse relative to the non-diseased control group receiving intraperitoneal PBS injection only. […]

| Structure (SMILES) | disease up-regulated IFN-regulated genes reduced by treatment vs. vehicle | interferon score, treated vs vehicle-treated (13 weeks of treatment with 300 mg/kg) | interferon score, treated vs vehicle-treated (14 weeks of treatment experiment (FIG. 7)) | disease-related interferon-modulated genes downregulated (14 weeks of treatment experiment (FIG. 7G)) | expression of IFN-modulated genes in whole blood (Pristane model, summary of key findings) |
| --- | --- | --- | --- | --- | --- |
| C[C@@H]1CN(c2ccc(C#N)c3ncccc23)C[C@H](C(=O)NC2CCN(C)CC2)O1 [ER-899464, (2R,6R)-4-(8-cyanoquinolin-5-yl)-6-methyl-N-(1-methylpiperidin-4-yl)morpholine-2-carboxamide] | none of the disease up-regulated genes shown in FIG. 3B were affected |  |  |  |  |
| C[C@@H]1CN(c2ccc(C#N)c3ncccc23)C[C@H](C(=O)N[C@H]2CNC[C@H]2F)O1.Cl [ER-899742, (2R,6R)-4-(8-cyanoquinolin-5-yl)-N-[(3S,4R)-4-fluoropyrrolidin-3-yl]-6-methylmorpholine-2-carboxamide hydrochloride] | six genes were significantly reduced | no significant difference | no significant difference | downregulation of five out of 28 disease-related interferon-modulated genes | Decreased expression of some IFN-modulated genes |
